The values that follow come from patent US20260042755A1, “GPR6 INVERSE AGONISTS” (MapLight Therapeutics, Inc., priority 2022, published 2026).

In assay [1] the target is T1, GPR6 (Homo sapiens, UniProt P46095).
T1 construct: expressed in transfected cells; host or cells: CHO cells
Description: GPR6 antagonist functional cAMP assay (LANCE Ultra cAMP TR-FRET, CHO cells stably expressing GPR6). The class given is cell-based. Put shortly: (§1)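 10,000 cells/well; KRB buffer + 0.1% BSA + 150 μM Ro 20-1724; cpd 45 min, 37 °C, 0.1% DMSO; TR-FRET cAMP, 665 nm; 4-PL fit, normalized to DMSO (0.1%) and reference (100%) → IC50.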
Background: Cyclic AMP is a second messenger, typically raised through Gs and lowered through Gi signalling.

Assay [2] addresses T2, GPR3 (Homo sapiens, UniProt P46089).
T2 construct: expressed in transfected cells; host or cells: CHO cells
Description: GPR3 antagonist functional cAMP assay (LANCE Ultra cAMP TR-FRET, CHO cells stably expressing GPR3). The class given is cell-based. Put shortly: as §1

The mark [3] stands for this setting: procedure as described in Example 24.
The mark [4] stands for this setting: CHO cells stably expressing GPR6, cAMP assay (Example 24).
The mark [5] stands for this setting: CHO cells stably expressing GPR3, cAMP assay (Example 24).

Broadly, the IC50 is the point on the concentration scale where inhibition reaches its midpoint.

T1 sequence (P46095 whole entry): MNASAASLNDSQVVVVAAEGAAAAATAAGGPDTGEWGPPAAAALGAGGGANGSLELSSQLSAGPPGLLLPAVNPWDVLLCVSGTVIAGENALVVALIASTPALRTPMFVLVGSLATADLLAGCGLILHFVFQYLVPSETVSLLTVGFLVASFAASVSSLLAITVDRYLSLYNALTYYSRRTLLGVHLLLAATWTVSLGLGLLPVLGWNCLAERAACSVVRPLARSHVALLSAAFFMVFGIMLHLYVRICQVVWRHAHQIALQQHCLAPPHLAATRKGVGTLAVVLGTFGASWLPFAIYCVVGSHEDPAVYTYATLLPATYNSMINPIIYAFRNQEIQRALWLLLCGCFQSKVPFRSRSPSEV
T2 sequence (P46089 whole entry, species assumed): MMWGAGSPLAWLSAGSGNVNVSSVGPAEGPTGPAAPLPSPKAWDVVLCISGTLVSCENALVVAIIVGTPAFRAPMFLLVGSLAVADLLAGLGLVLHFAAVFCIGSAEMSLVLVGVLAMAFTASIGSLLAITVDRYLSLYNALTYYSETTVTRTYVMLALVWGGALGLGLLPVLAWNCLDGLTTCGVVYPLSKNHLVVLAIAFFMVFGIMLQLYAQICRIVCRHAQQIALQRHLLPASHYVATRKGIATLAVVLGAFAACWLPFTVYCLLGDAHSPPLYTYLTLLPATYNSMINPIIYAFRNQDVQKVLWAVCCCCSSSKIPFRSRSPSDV

With `Cn1cc(-c2nc3cnc(C(O)CN)cc3nc2N2CCC(Oc3ccc(F)cc3F)CC2)cn1` (stereo not drawn) [Compound 309, 2-amino-1-(2-(4-(2,4-difluorophenoxy)piperidin-1-yl)-3-(1-methyl-1H-pyrazol-4-yl)pyrido[3,4-b]pyrazin-7-yl)ethan-1-ol], the figures for the IC50 in assay [1] (procedure of Example 24) and in assay [2] (procedure of Example 24) were 100 to 1000 nM and 1000 to 30000 nM, respectively.

For `CC(=O)N1CCc2nc(N3CCC(Oc4ccc(F)cc4F)CC3)c(-c3cnccn3)nc2C1` [Compound 19, 1-{2-[4-(2,4-difluorophenoxy)piperidin-1-yl]-3-(pyrazin-2-yl)-5H,6H,7H,8H-pyrido[3,4-b]pyrazin-6-yl}ethan-1-one], the IC50 fell in the range of 1000 to 30000 nM in assay [1] (setting [3]) and 100 to 1000 nM in assay [2] (setting [3]).

In the case of `Cn1cc(-c2nc3cnc([C@H](O)C(C)(C)O)cc3nc2N2CCC(Oc3ccc(F)cc3F)CC2)cn1` (single isomer, unassigned) [Compound 378, (Rel-S)-1-(2-(4-(2,4-difluorophenoxy)piperidin-1-yl)-3-(1-methyl-1H-pyrazol-4-yl)pyrido[3,4-b]pyrazin-7-yl)-2-methylpropane-1,2-diol], the IC50 in assay [1] (setting [4]) lay within 100 to 1000 nM; in assay [2] (setting [5]), 1000 to 30000 nM.

As to `CC(=O)N1CCc2nc(N3CCC(=Cc4ccccc4)CC3)c(-c3cnn(C)c3)nc2C1` [Compound 646, 1-[2-(4-benzylidene-1-piperidyl)-3-(1-methyl-4-pyrazolyl)-5,6,7,8-tetrahydro-1,4,6-triaza-6-naphthyl]-1-ethanone], the IC50 was 100 to 1000 nM in assay [1] (procedure of Example 24) and 1000 to 30000 nM in assay [2] (procedure of Example 24).

`Fc1ccc(OC2CCN(c3nc4ccncc4nc3-c3cn[nH]c3)CC2)c(F)c1` [Compound 9, 4-(2,4-difluorophenoxy)-1-[3-(1H-pyrazol-4-yl)pyrido[3,4-b]pyrazin-2-yl]piperidine]: the IC50 in assay [1] (setting [3]) and in assay [2] (setting [3]) was 100 to 1000 nM each time.

As for `Cn1cc(-c2nc3cnc(N)cc3nc2N2CCC(Oc3ccc(F)cc3F)CC2)cn1` [Compound 277, 2-[4-(2,4-difluorophenoxy)piperidin-1-yl]-3-(1-methyl-1H-pyrazol-4-yl)pyrido[3,4-b]pyrazin-7-amine], the IC50 lay within 100 to 1000 nM in assay [1] (procedure of Example 24) and 1000 to 30000 nM in assay [2] (procedure of Example 24).

`Cn1cc(-c2nc3c(O)nccc3nc2N2CCC(Oc3ccc(F)cc3F)CC2)cn1` [Compound 376, 2-[4-(2,4-difluorophenoxy)piperidin-1-yl]-3-(1-methyl-1H-pyrazol-4-yl)pyrido[3,4-b]pyrazin-5-ol]: the IC50 in assay [1] (procedure of Example 24) and in assay [2] (procedure of Example 24) was 1000 to 30000 nM throughout.

With `Cn1cc(-c2nc3cnc([C@](C)(O)C(C)(C)O)cc3nc2N2CCC(Oc3ccc(F)cc3F)CC2)cn1` (single isomer, unassigned) [Compound 673], the IC50 lay within 100 to 1000 nM in assay [1] (procedure of Example 24) and 1000 to 30000 nM in assay [2] (procedure of Example 24).

On to `CCn1cc(-c2nc3cnc(C(=O)C(C)(C)O)cc3nc2N2CCC(Oc3ccc(F)cc3F)CC2)cn1` [Compound 651, 1-{2-[4-(2,4-difluorophenoxy)-1-piperidyl]-3-(1-ethyl-4-pyrazolyl)-1,4,6-triaza-7-naphthyl}-2-hydroxy-2-methyl-1-propanone], for which the results for the IC50 in assay [1] (procedure of Example 24) and in assay [2] (procedure of Example 24) were 100 to 1000 nM and 1000 to 30000 nM, respectively.

Take `Cn1cc(-c2nc3cnc([C@](C)(O)CO)cc3nc2N2CCC(Oc3ccc(F)cc3F)CC2)cn1` (single isomer, unassigned) [Compound 565]: the IC50 in assay [1] (CHO cells stably expressing GPR6, cAMP assay) fell in the range of 1000 to 30000 nM; in assay [2] (CHO cells stably expressing GPR3, cAMP assay) it was 1000 to 30000 nM.

Consider `Cn1cc(-c2nc3cnc(OCCO)cc3nc2N2CCC(Oc3ccc(F)cc3F)CC2)cn1` [Compound 399, 2-({2-[4-(2,4-difluorophenoxy)piperidin-1-yl]-3-(1-methyl-1H-pyrazol-4-yl)pyrido[3,4-b]pyrazin-7-yl}oxy)ethan-1-ol], for which the IC50 in assay [1] (setting [4]) and in assay [2] (setting [5]) was 1000 to 30000 nM each time.

As to `N#CN1CCc2nc(N3CCC(Oc4ccc(F)cc4F)CC3)c(-c3ccc(F)c(N)n3)nc2C1` [Compound 671, 6-{6-cyano-2-[4-(2,4-difluorophenoxy)-1-piperidyl]-5,6,7,8-tetrahydro-1,4,6-triaza-3-naphthyl}-3-fluoro-2-pyridylamine], the results for the IC50 in assay [1] (procedure of Example 24) and in assay [2] (procedure of Example 24) were less than 100 nM and 1000 to 30000 nM, respectively.

Turning to `CC(=O)N1CCc2nc(N3CCC(Oc4ccc(F)cc4F)CC3)c(-c3cnn(C)c3)nc2C1` [Compound 44, 1-{2-[4-(2,4-difluorophenoxy)piperidin-1-yl]-3-(1-methyl-1H-pyrazol-4-yl)-5H,6H,7H,8H-pyrido[3,4-b]pyrazin-6-yl}ethan-1-one], the IC50 in assay [1] (setting [3]) fell in the range of 100 to 1000 nM; in assay [2] (setting [3]), 1000 to 30000 nM.

For `O=c1cc2nc(-c3cnn(CF)c3)c(N3CCN(Cc4ccc(F)cc4F)CC3)nc2c[nH]1` [Compound 796, 3-{4-[(2,4-difluorophenyl)methyl]-1-piperazinyl}-2-[1-(fluoromethyl)-4-pyrazolyl]-1,4,6-triaza-7(6H)-naphthalenone], the IC50 fell in the range of 100 to 1000 nM in assay [1] (procedure of Example 24) and 1000 to 30000 nM in assay [2] (procedure of Example 24).

Turning to `O=C(O)c1cc2nc(-c3cnn(CF)c3)c(N3CCN(Cc4ccc(F)cc4F)CC3)nc2cn1` [Compound 765, 3-{4-[(2,4-difluorophenyl)methyl]-1-piperazinyl}-2-[1-(fluoromethyl)-4-pyrazolyl]-1,4,6-triaza-7-naphthoic acid], the IC50 in assay [1] (procedure of Example 24) and in assay [2] (procedure of Example 24) was 1000 to 30000 nM throughout.

For the molecule `CC(=O)N1CCc2nc(N3CC=CC3)c(-c3cnn(C)c3)nc2C1` [Compound 451, 1-[2-(2,5-dihydro-1H-pyrrol-1-yl)-3-(1-methyl-1H-pyrazol-4-yl)-5H,6H,7H,8H-pyrido[3,4-b]pyrazin-6-yl]ethan-1-one], the IC50 was no less than 30000 nM in assay [1] (setting [4]) and 1000 to 30000 nM in assay [2] (setting [5]).

Consider `CC(C)(O)C(C)(O)c1cc2nc(-c3cnn(C4CC4)c3)c(N3CCC(Oc4ccc(F)cc4F)CC3)nc2cn1` (single isomer, unassigned) [Compound 721], for which the IC50 in assay [1] (procedure of Example 24) lay in the range of 100 to 1000 nM; in assay [2] (procedure of Example 24) it was 1000 to 30000 nM.

As for `CC(=O)OC1CCCN(c2nc3c(nc2-c2cnn(C)c2)CN(Cc2ccccc2)CC3)C1` (stereo not drawn) [Compound 278, 1-[6-benzyl-3-(1-methyl-1H-pyrazol-4-yl)-5H,6H,7H,8H-pyrido[3,4-b]pyrazin-2-yl]piperidin-3-yl acetate], the IC50 in assay [1] (procedure of Example 24) and in assay [2] (procedure of Example 24) was 1000 to 30000 nM throughout.

`CC(=O)N1CCc2nc(N3CCC(C(=O)NCc4ccc(F)cc4F)C3)c(-c3cnn(C)c3)nc2C1` (stereo not drawn) [Compound 386, 1-[6-acetyl-3-(1-methyl-1H-pyrazol-4-yl)-5H,6H,7H,8H-pyrido[3,4-b]pyrazin-2-yl]-N-[(2,4-difluorophenyl)methyl] pyrrolidine-3-carboxamide]: the IC50 in assay [1] (setting [4]) is no less than 30000 nM; in assay [2] (setting [5]), 1000 to 30000 nM.

For the molecule `COc1cnnc(-c2nc3c(nc2N2CCC(Oc4ccc(F)cc4F)CC2)CCN(C(C)=O)C3)c1` [Compound 192, 1-{2-[4-(2,4-difluorophenoxy)piperidin-1-yl]-3-(5-methoxypyridazin-3-yl)-5H,6H,7H,8H-pyrido[3,4-b]pyrazin-6-yl}ethan-1-one], the IC50 in assay [1] (setting [4]) and in assay [2] (setting [5]) was 1000 to 30000 nM each time.

As for `CC(=O)N1CCc2nc(N3CCC(Oc4ccc(F)cc4F)CC3)c(-c3cccc(OC(C)C)n3)nc2C1` [Compound 39, 1-{2-[4-(2,4-difluorophenoxy)piperidin-1-yl]-3-[6-(propan-2-yloxy)pyridin-2-yl]-5H,6H,7H,8H-pyrido[3,4-b]pyrazin-6-yl}ethan-1-one], the IC50 in assay [1] (setting [3]) is 1000 to 30000 nM; in assay [2] (setting [3]), 100 to 1000 nM.
